US10766914B2, “DNA alkylating agents” (OBI PHARMA, INC., priority 2015, dated 2020)

Assays:
H460 cells = assay: Proliferation assay in H460 cells (2 hr exposure, AlamarBlue); type: cell-based, human; details: Homo sapiens, NCI-H460, 2 hrs exposure, wash, 70 hrs growth, read-out: IC 50 in proliferation assay in H460 cells
Summary of the method: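 H460 cells seeded at 4×10^3/well, grown 24 h, then exposed to compound for 2 h at 37 °C. Drug was washed off and cells were regrown 70 h in fresh medium. Viable cells were read by AlamarBlue, and IC50 was taken as the concentration giving 50% growth inhibition.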

H460 NSCLC xenograft [1] = assay: Example 4-F antitumor efficacy, ectopic H460 NSCLC xenograft model; type: in vivo, female nude mice (nu/nu); details: ip, once
From the text: (§1) Specific pathogen-free homozygous female nude mice (nu/nu, Charles River Laboratories) were used. Mice were given food and water ad libitum and housed in microisolator cages. Four to six week old animals were identified by microchips (Locus Technology, Manchester, Md., USA) at the time of the experiments. All animal studies were approved by the Institutional Animal Care and Use Committee at Threshold Pharmaceuticals, Inc.
(§2) All cell lines were from the American Type Culture Collection (ATCC, Rockville, Md., USA).
(§3) Cells were mixed with Matrigel (50% with exception for 30% in the H460) and 0.2 ml per mouse were subcutaneously implanted to the flank area of the animals. When tumor size reached 100-150 250 mm3, mice were randomized into experimental or vehicle groups with 10 mice/group and treatment was started (Day 1). The tested compounds were formulated in 5% DMSO in D5W. The regimens employed in the examples include IP, QD×5/wk (5 days on, 2 days off) as one cycle, for a total of 2 cycles; IP, once; IP, weekly for total 3 weeks; and IV, weekly for 3 weeks. Tumor growth and body weight were measured twice a week. Tumor volume was calculated as (length×width2)/2. Drug efficacy was assessed as Tumor Growth Inhibition (TGI) and Tumor Growth Delay (TGD). TGI was defined as (1−ΔT/ΔC)×100, where ΔT/ΔC presented the ratio of the change in mean (or median, if variation within the group was relatively large) tumor volume of the treated group and of the control group. TGD was calculated as the extra days for the treated tumor to reach 500 mm3 or 1000 mm3 as compared to the control group. Animals were culled when individual tumor size reached over 2000 mm3 or mean tumor volume exceeded 1000 mm3 in the group. Data are expressed as the mean±SEM. One-way analysis of variance with Dunnett post comparison test (GraphPad Prism 4) or two-tailed student's t-test were used for analysis. A P level <0.05 was considered statistically significant.
(§4) The compounds TH-2953 and TH-3040 were tested in a H460 model. The compounds were dosed as follows. A dose-dependent TH-2953 was given IP once, from 6.25 to 100 mg/kg, comparing with daily IP: 5 doses then 2 days off then 5 more doses starting at 100 mm^3 tumors on day 1 (10 animals per group average tumor volume). TH-3040 was administered IP once. The antitumor effects and the safety of administration are graphically illustrated below.

[2] = Example 4-F body weight change, H460 xenograft study; type: in vivo, female nude mice (nu/nu); details: ip, once
Description: as §3, §4

H460 NSCLC xenograft [3] = assay: Example 4-G antitumor efficacy, ectopic H460 NSCLC xenograft model; type: in vivo, female nude mice (nu/nu); details: ip, Q7D × 3
From the text: as §1, §2, §3
(§5) The compounds TH-3040 and TH-3045 were tested in a H460 model. The compounds were dosed as follows. A dose-dependent TH-3040 or TH-3045 was given IP weekly for 3 weeks, from 5 to 45 mg/kg starting at 100 mm^3 tumors on day 1 (10 animals per group average tumor volume). The antitumor effects and the safety of administration are graphically illustrated below.

[4] = Example 4-G body weight change, H460 xenograft study; type: in vivo, female nude mice (nu/nu); details: ip, Q7D × 3
Description: as §3, §5

H460 NSCLC xenograft [5] = assay: Example 4-H antitumor efficacy, ectopic H460 NSCLC xenograft model; type: in vivo, female nude mice (nu/nu); details: ip, Q7D × 3
From the text: as §1, §2, §3
The compound TH-3040 was tested in a H460 model. The compound was dosed as follows: 5 or 1.5 mg/kg, IP, weekly for 3 weeks at 100 mm^3 tumors on day 1 (10 animals per group average tumor volume), comparing with nab-Paclitaxel. The antitumor effects and the safety of administration are graphically illustrated below.

[6] = Example 4-H body weight change, H460 xenograft study; type: in vivo, female nude mice (nu/nu); details: ip, Q7D × 3
Description: as §3, with “A P level <0.05 was considered statistically significant.” left out

AKR1C3 = biological target: T1, AKR1C3 (Homo sapiens, UniProt P42330); details: background statement; cited from earlier work
T1 sequence (P42330 1-323): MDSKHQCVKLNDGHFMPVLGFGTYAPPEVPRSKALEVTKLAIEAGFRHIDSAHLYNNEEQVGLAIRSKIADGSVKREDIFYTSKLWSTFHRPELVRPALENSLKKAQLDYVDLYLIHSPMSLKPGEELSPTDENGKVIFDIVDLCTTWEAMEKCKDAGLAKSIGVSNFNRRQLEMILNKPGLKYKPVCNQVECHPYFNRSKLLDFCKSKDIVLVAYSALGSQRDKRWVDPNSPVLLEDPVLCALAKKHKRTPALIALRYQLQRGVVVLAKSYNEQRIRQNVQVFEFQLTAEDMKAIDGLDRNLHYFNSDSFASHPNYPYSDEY

[7] = background statement; cited from earlier work

In the case of `C[C@H](OP(=O)(N1CC1)N1CC1)c1ccc([N+](=O)[O-])c(Oc2ccc(-c3ccccc3)cc2)c1` [Compound 3040], the IC50 (H460 cells) is reported as 4 nM, the “TGD 500” value (H460 NSCLC xenograft [1]; 25 mpk) is reported as 17 days and the “TGD 1000” value (H460 NSCLC xenograft [1]; 25 mpk) is reported as 17 days. The TGI (H460 NSCLC xenograft [1]; 25 mpk) was 80.5%, the “TGD 500” value (H460 NSCLC xenograft [1]; 100 mpk) was 20 days and the “TGD 1000” value (H460 NSCLC xenograft [1]; 100 mpk) was 23 days. For the same molecule, the TGI (H460 NSCLC xenograft [1]; 100 mpk) was 93.7%, the “Max. BW loss %” value ([2]; 25 mpk) was 1.3% and the “Max. BW loss %” value ([2]; 100 mpk) was 0.0%. The TGD 500 (H460 NSCLC xenograft [3]; 5 mpk) was 40 days, the TGI (H460 NSCLC xenograft [3]; 5 mpk) was 103.5% and the TGD 500 (H460 NSCLC xenograft [3]; 15 mpk) was 60 days. The TGI (H460 NSCLC xenograft [3]; 15 mpk) was 104.3%, the TGD 500 (H460 NSCLC xenograft [3]; 45 mpk) was 66 days and the TGI (H460 NSCLC xenograft [3]; 45 mpk) was 106.4%. The “Max BW loss” value ([4]; 5 mpk) was 2.5%, the “Max BW loss” value ([4]; 15 mpk) was 1.0% and the “Max BW loss” value ([4]; 45 mpk) was 0.0%. The “TGD500, Days (vs. vehicle)” value (H460 NSCLC xenograft [5]; 1.5 mg/kg) was 15 days, the “TGD1000, Days (vs. vehicle)” value (H460 NSCLC xenograft [5]; 1.5 mg/kg) was 19 days and the TGI (H460 NSCLC xenograft [5]; 1.5 mg/kg) was 80.6%. The “TGD500, Days (vs. vehicle)” value (H460 NSCLC xenograft [5]; 5 mg/kg) was 36 days, the “TGD1000, Days (vs. vehicle)” value (H460 NSCLC xenograft [5]; 5 mg/kg) was 41 days and the TGI (H460 NSCLC xenograft [5]; 5 mg/kg) was 101.9%. For the same molecule, the “Max. BW loss %” value ([6]; 1.5 mg/kg) was 7.2% and the “Max. BW loss %” value ([6]; 5 mg/kg) was 5.2%.
For `CS(=O)(=O)OCCN(CCBr)c1c(C(=O)NCCOP(=O)(O)O)cc([N+](=O)[O-])cc1[N+](=O)[O-]` [PR 104], the “substrate for AKR1C3” value (AKR1C3) is given as “weak substrate” and the “efficacy in clinical trials” value [7] is given as “ineffective”.
